Test [1] addresses T1, PiaA (Streptococcus pneumoniae, UniProt A0A0H2UPT5).
T1 construct: gene SP_1032; residues Asn23-Lys341, N-terminal 6×His-tag
Kind of test: ITC and crystal structure ([…] Å). It is filed as binding.

Test [2] addresses T2, PiaA (Streptococcus pneumoniae, UniProt A0A0H2UPT5, W63A).
T2 construct: gene SP_1032; residues Asn23-Lys341, N-terminal 6×His-tag
T2 sequence (A0A0H2UPT5 23-341 W63A): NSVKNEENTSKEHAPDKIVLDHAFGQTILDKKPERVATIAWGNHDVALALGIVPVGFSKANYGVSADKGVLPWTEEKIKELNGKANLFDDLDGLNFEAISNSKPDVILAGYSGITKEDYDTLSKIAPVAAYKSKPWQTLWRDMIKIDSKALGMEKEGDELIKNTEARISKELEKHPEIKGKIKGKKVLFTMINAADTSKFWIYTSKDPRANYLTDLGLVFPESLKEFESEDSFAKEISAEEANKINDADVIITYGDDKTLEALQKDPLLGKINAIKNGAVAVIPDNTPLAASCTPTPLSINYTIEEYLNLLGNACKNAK
Kind of test: ITC. It is filed as binding.

Where a SMILES comes first, the peptide text is derived from it. [ ]: non-standard residue; d: D form. Orn(N5-OH,N5-Ac) = CC(=O)N(O)CCC[C@H](N)C(=O)O

Usually Kd stands for the constant that tells how readily two partners part at equilibrium. Read a high Kd as lower affinity. Take `CC(=O)N([O-])CCC[C@@H]1NC(=O)CNC(=O)CNC(=O)CNC(=O)[C@H](CCCN([O-])C(C)=O)NC(=O)[C@H](CCCN([O-])C(C)=O)NC1=O.[Fe+3]` [ferrichrome] (cyclo(GGG[Orn(N5-OH,N5-Ac)][Orn(N5-OH,N5-Ac)][Orn(N5-OH,N5-Ac)])): the dissociation constant Kd at PiaA [1] is 5.8 ± 1.4 nM; at PiaA [2], around 32.8 nM.
